Results: paper PMC10381533, “Inhibitory Effects of the Fungal Pigment Rubiginosin C on Hyphal and Biofilm Formation in Candida albicans and Candida auris” (Journal of Fungi, 2023)

Columns and labels:
[1] = test system: C. auris [DSM 21092] biofilm; assay: Effects on C. auris biofilms of various ages (2 h, 12 h, 24 h), crystal violet; type: cell-based, Candida auris
Experimental: The turbidity of C. auris [DSM 21092] dispersion was measured at 280 nm and diluted to the turbidity of a 0.5 McFarland standard. C. auris was cultured in RPMI 1640 medium supplemented with […] MOPS (37 °C, 150 rpm, 2 h, 12 h, 24 h) in 96-well non-tissue microtiter plates (Falcon no. 351172, Thermo Fisher Scientific). After incubation, C. auris biofilms of various ages (2 h, 12 h, 24 h) were washed once by PBS buffer and treated (37 °C, 150 rpm, 24 h) with serial diluted Rub C (250–0.02 μg/mL) in fresh RPMI 1640 medium supplemented with […] MOPS. Samples of each time point were further processed and evaluated by a microtiter plate reader, as described above.

[2] = test system: preformed S. aureus biofilm; assay: Dispersal effect on preformed S. aureus biofilm; type: cell-based, Staphylococcus aureus; conditions: 250 µg/mL
Experimental: compounds (250–2 μg/mL) in CASO with 4% glucose broth. The inhibition of biofilm formation was evaluated by staining with 150 μL of 0.1% crystal violet (CV; Thermo Fisher) following previously established protocols. In the next step, the supernatant of the 96-well plate was discarded and the wells were rinsed once with PBS buffer. The remaining biofilms were stained at room temperature for 15 min, rinsed three times with PBS buffer, and finally dissolved in 150 μL ethanol (95%). The absorbance of the resulting solution at 530 nm was quantified using a plate reader (Synergy 2, BioTek). Methanol (2.5%) and microporenic acid A (MAA) (250–2 μg/mL) were used as negative and positive controls. Standard deviations (SD) of two repeats with duplicates were 10% or less. […]
Table S2: Selected azaphilones were tested against the formation of biofilm of S. aureus, P. aeruginosa as well as C. auris and dispersal effect on preformed biofilm of S. aureus compared to solvent control (= 0%), respectively. SDs are shown as ±SD.
Compounds Strains Concentrations [µg/mL] […]

| Compound | biofilm attachment compared to solvent control (=0%) ([1]; 2 h old C. auris biofilm, 2 µg/mL) [%] | biofilm attachment compared to solvent control (=0%) ([1]; 2 h old C. auris biofilm, 3.9 µg/mL) [%] | biofilm attachment compared to solvent control (=0%) ([1]; 2 h old C. auris biofilm, 7.8 µg/mL) [%] | biofilm attachment compared to solvent control (=0%) ([1]; 2 h old C. auris biofilm, 15.6 µg/mL) [%] | biofilm attachment compared to solvent control (=0%) ([1]; 2 h old C. auris biofilm, 31.3 µg/mL) [%] | biofilm attachment compared to solvent control (=0%) ([1]; 2 h old C. auris biofilm, 62.5 µg/mL) [%] | biofilm attachment compared to solvent control (=0%) ([1]; 12 h old C. auris biofilm, 2 µg/mL) [%] | biofilm attachment compared to solvent control (=0%) ([1]; 12 h old C. auris biofilm, 3.9 µg/mL) [%] | biofilm attachment compared to solvent control (=0%) ([1]; 12 h old C. auris biofilm, 7.8 µg/mL) [%] | biofilm attachment compared to solvent control (=0%) ([1]; 12 h old C. auris biofilm, 15.6 µg/mL) [%] | biofilm attachment compared to solvent control (=0%) ([1]; 12 h old C. auris biofilm, 31.3 µg/mL) [%] | biofilm attachment compared to solvent control (=0%) ([1]; 12 h old C. auris biofilm, 62.5 µg/mL) [%] | biofilm attachment compared to solvent control (=0%) ([1]; 24 h old C. auris biofilm, 2 µg/mL) [%] | biofilm attachment compared to solvent control (=0%) ([1]; 24 h old C. auris biofilm, 3.9 µg/mL) [%] | biofilm attachment compared to solvent control (=0%) ([1]; 24 h old C. auris biofilm, 7.8 µg/mL) [%] | biofilm attachment compared to solvent control (=0%) ([1]; 24 h old C. auris biofilm, 15.6 µg/mL) [%] | biofilm attachment compared to solvent control (=0%) ([1]; 24 h old C. auris biofilm, 31.3 µg/mL) [%] | biofilm attachment compared to solvent control (=0%) ([1]; 24 h old C. auris biofilm, 62.5 µg/mL) [%] | dispersal effect on preformed biofilm of S. aureus compared to solvent control (= 0%) [2] [%] |
| --- | --- | --- | --- | --- | --- | --- | --- | --- | --- | --- | --- | --- | --- | --- | --- | --- | --- | --- | --- |
| C[C@@H]1[C@H](O)[C@@H](C)/C=C/C=C/CC/C=C/C=C/C=C/C=C/C(O[C@H]2O[C@H](C)[C@@H](O)[C@H](N)[C@@H]2O)CC2O[C@](O)(CC(O)C(O)CCC(O)CC(O)CC(O)CC(=O)O[C@H]1C)CC(O)C2C(=O)O (stereo partly shown) [Nystatin, nystatin] | 84 ±25 | 39 ±10 | 58 ±16 | 53 ±10 | 50 ±10 | 47 ±8 | 96 ±12 | 64 ±12 | 49 ±10 | 43 ±6 | 41 ±9 | 45 ±8 | 93 ±28 | 48 ±2 | 51 ±9 | 49 ±5 | 50 ±10 | 46 ±5 | – |
| CC(=O)OC/C=C/C1=CC2=C(CO1)C(=O)[C@@](C)(OC(=O)c1c(C)cc(O)cc1O)C(=O)/C2=C\C=C\C1=CC2=C(CO1)C(=O)[C@@](C)(OC(=O)c1c(C)cc(O)cc1O)[C@@H](O)C2 [Rut B, rutilin B] | – | – | – | – | – | – | – | – | – | – | – | – | – | – | – | – | – | – | 51 ±8 |
